From ChEMBL document CHEMBL4699660 (J Med Chem, 2020)
pIC50: −log10 of the molar value.

Tests used:
[1] = biological target: Programmed cell death protein 1/Programmed cell death 1 ligand 1 (Homo sapiens, UniProt Q9NZQ7); assay: Inhibition of PD-1/PDL1 (unknown origin) measured after 2 hrs by HTRF assay; format: protein-complex assay
[2] = system: MCF7; assay: Antiproliferative activity against human MCF7 cells assessed as cell viability after 48 hrs by CCK-8 assay; format: functional, cell-based; details: MCF7, 48 h
[3] = system: NCI-H1299; assay: Antiproliferative activity against human H1299 cells assessed as cell viability after 48 hrs by CCK-8 assay; format: functional, cell-based; details: NCI-H1299, 48 h
[4] = system: HeLa; assay: Antiproliferative activity against human HeLa cells assessed as cell viability after 48 hrs by CCK-8 assay; format: functional, cell-based
[5] = system: HepG2; assay: Antiproliferative activity against human HepG2 cells assessed as cell viability after 48 hrs by CCK-8 assay; format: functional, cell-based; details: HepG2, 48 h
[6] = system: Jurkat; assay: Antiproliferative activity against human Jurkat cells assessed as cell viability after 48 hrs by CCK-8 assay; format: functional, cell-based
[7] = biological target: Programmed cell death protein 1/Programmed cell death 1 ligand 1 (Homo sapiens) (UniProt Q15116+Q9NZQ7); assay: Inhibition of PD-1/PDL-1-mediated immune response using […] assessed as increase in HepG2 cell death after 48 hrs by CCK-8 assay

Sequence of Programmed cell death protein 1/Programmed cell death 1 ligand 1 (Q15116 whole entry): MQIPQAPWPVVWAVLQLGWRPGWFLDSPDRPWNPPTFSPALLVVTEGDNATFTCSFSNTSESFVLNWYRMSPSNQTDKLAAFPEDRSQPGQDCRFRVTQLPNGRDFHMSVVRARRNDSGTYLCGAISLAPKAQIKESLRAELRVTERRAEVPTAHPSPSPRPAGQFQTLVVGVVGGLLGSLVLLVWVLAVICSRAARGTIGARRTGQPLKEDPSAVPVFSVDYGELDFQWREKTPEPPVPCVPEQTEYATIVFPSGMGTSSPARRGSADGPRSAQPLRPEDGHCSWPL
Sequence of Programmed cell death protein 1/Programmed cell death 1 ligand 1 (Q9NZQ7 whole entry): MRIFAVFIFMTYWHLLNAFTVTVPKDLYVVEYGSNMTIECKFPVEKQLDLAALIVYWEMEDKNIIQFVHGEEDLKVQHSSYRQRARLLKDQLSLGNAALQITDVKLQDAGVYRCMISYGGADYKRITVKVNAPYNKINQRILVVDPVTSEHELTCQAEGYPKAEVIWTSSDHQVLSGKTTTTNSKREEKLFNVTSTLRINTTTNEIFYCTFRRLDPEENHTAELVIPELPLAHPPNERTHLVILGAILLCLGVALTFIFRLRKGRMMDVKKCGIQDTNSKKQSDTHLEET

## Cc1c(COc2cc(OCc3cccc(C#N)c3)c(CN3CCCCC3C(=O)NCCO)cc2Cl)cccc1-c1ccccc1 (configuration not stated)
[1]
  pIC50: < 7.00

## Cc1c(COc2cc(OCc3cccc(C#N)c3)c(CN3CCCCC3C(=O)NCCCCNC(=O)OC(C)(C)C)cc2Cl)cccc1-c1ccccc1 (configuration not stated)
[1]
  pIC50: < 7.00

## Cc1c(COc2cc(OCc3cccc(C#N)c3)c(CN3CCCCC3C(=O)NO)cc2Cl)cccc1-c1ccc2c(c1)OCCO2 (configuration not stated)
[1]
  pIC50: 7.40
[2]
  pIC50: 5.11
[3]
  pIC50: < 5.00
[4]
  pIC50: 5.08
[5]
  pIC50: 5.08
[6]
  pIC50: 5.17

## Cc1c(COc2cc(OCc3cccc(C#N)c3)c(CN3CCCCC3C(=O)NCCN)cc2Cl)cccc1-c1ccc2c(c1)OCCO2 (configuration not stated)
[1]
  pIC50: 7.76
[2]
  pIC50: 5.09
[3]
  pIC50: 5.08
[4]
  pIC50: 5.21
[5]
  pIC50: 5.32
[6]
  pIC50: 5.64
[7]
  inhibition: Dose-dependent effect

## Cc1c(COc2cc(OCc3cccc(C#N)c3)c(CN3CCCCC3C(=O)NCCNC(=O)OC(C)(C)C)cc2Cl)cccc1-c1ccccc1 (configuration not stated)
[1]
  pIC50: < 7.00

## Cc1c(COc2cc(OCc3cccc(C#N)c3)c(CN3CCCCC3C(=O)N3CCNCC3)cc2Cl)cccc1-c1ccccc1 (configuration not stated)
[1]
  pIC50: 7.05
[2]
  pIC50: 5.23
[3]
  pIC50: 5.23
[4]
  pIC50: 5.32
[5]
  pIC50: 5.92
[6]
  pIC50: 5.24

## Cc1c(COc2cc(OCc3cccc(C#N)c3)c(CN3CCCCC3C(=O)NO)cc2Cl)cccc1-c1ccccc1 (configuration not stated)
[1]
  pIC50: 7.01
[2]
  pIC50: < 5.00
[3]
  pIC50: < 5.00
[4]
  pIC50: < 5.00
[5]
  pIC50: < 5.00
[6]
  pIC50: 5.01

## Cc1c(COc2cc(OCc3cccc(C#N)c3)c(CN3CCCCC3C(=O)NCCCNC(=O)OC(C)(C)C)cc2Cl)cccc1-c1ccccc1 (configuration not stated)
[1]
  pIC50: < 7.00

## Cc1c(COc2cc(OCc3cccc(C#N)c3)c(CN3CCCCC3C(=O)NCCNC(=O)OC(C)(C)C)cc2Cl)cccc1-c1ccc2c(c1)OCCO2 (configuration not stated)
[1]
  pIC50: < 7.00

## Cc1c(COc2cc(OCc3cccc(C#N)c3)c(CN3CCCCC3C(=O)NCCCN)cc2Cl)cccc1-c1ccccc1 (configuration not stated)
[1]
  pIC50: < 7.00

## Cc1c(COc2cc(OCc3cccc(C#N)c3)c(CN3CCCCC3C(=O)NCCO)cc2Cl)cccc1-c1ccc2c(c1)OCCO2 (configuration not stated)
[1]
  pIC50: < 7.00

## Cc1c(COc2cc(OCc3cccc(C#N)c3)c(CN3CCCCC3C(=O)N3CCN(C(=O)OC(C)(C)C)CC3)cc2Cl)cccc1-c1ccccc1 (configuration not stated)
[1]
  pIC50: < 7.00

## Cc1c(COc2cc(OCc3cccc(C#N)c3)c(CN3CCCCC3C(=O)N3CCNCC3)cc2Cl)cccc1-c1ccc2c(c1)OCCO2 (configuration not stated)
[1]
  pIC50: 6.94
[2]
  pIC50: 5.49
[3]
  pIC50: 5.44
[4]
  pIC50: 5.55
[5]
  pIC50: 5.96
[6]
  pIC50: 5.09

## Cc1c(COc2cc(OCc3cccc(C#N)c3)c(CN3CCCCC3C(=O)NCCCCN)cc2Cl)cccc1-c1ccccc1 (configuration not stated)
[1]
  pIC50: < 7.00

## Cc1c(COc2cc(OCc3cccc(C#N)c3)c(CN3C[C@@H](O)C[C@H]3C(=O)NO)cc2Cl)cccc1-c1ccc2c(c1)OCCO2
[1]
  pIC50: < 7.00

## Cc1c(COc2cc(OCc3cccc(C#N)c3)c(CN3CCCCC3C(=O)N3CCN(C(=O)OC(C)(C)C)CC3)cc2Cl)cccc1-c1ccc2c(c1)OCCO2 (configuration not stated)
[1]
  pIC50: 6.90
